Values joined by “and” are separate entries in the source; they are usually repeats but may differ in a detail not shown here. Equal values may be shown once. Read-outs that look alike come from different tables or passages of the source.

One series is described as follows: in vitro. The conditions noted are these: dog. The procedure: (§1) Cytotoxicity of ezetimibe 1 and of newly synthesized amides 5a–f was determined using MTT cell proliferation assay in Madine-Darby Canine Kidney II wild-type (MDCKIIwt), MDCKII cells stably expressing hNPC1L1 (hNPC1L1/MDCKII) and HepG2 cell lines (Table 1). hNPC1L1/MDCKII were used as a pharmacologically validated model for investigating NPC1L1-mediated cholesterol uptake.[21] LC50 values were determined and values higher than 100 μM were considered non-toxic.
(§2) Madin-Darby Canine Kidney II wild type (MDCKIIwt), MDCKII cells stably expressing human NPC1L1 (hNPC1L1/MDCKII), and HepG2 cells were cultured in Dulbecco’s Modified Eagle Medium (DMEM) (Gibco,® Life Technologies, Carlsbad, USA) containing 10% fetal calf serum (FCS) (Sigma–Aldrich, Munich, Germany), 1% penicillin/streptomycin in a humidified 5% CO2 incubator at 37 °C. MDCKIIwt cells were stably transfected with human NPC1L1 using Lipofectamine LTX (Life Technologies, Carlsbad, USA) according to the manufacturer’s protocol. After 48 h, selection with 1000 μg/mL G418 (Sigma–Aldrich, Munich, Germany) was started. Selection lasted for two weeks, after which transfected cells were maintained in the medium containing 500 μg/mL G418.
(§3) MDCKIIwt, hNPC1L1/MDCKII, and HepG2 cells were plated in 96-well microtiter plates at 2 × 10^4 cells/mL on day 0. On the next day, tested compounds were added to obtain five 10-fold consecutive dilutions in range from 10^−8 to 10^−4 mol/L, and incubated for further 72 h. Cytotoxicity of the compounds was determined by the MTT cell proliferation assay (Sigma–Aldrich, Munich, Germany).[22] The results are expressed as LC50 values. The absorbance (A) was measured on a microplate reader at 570 nm. Cytotoxicity of each compound was tested in quadruplicate in three independent experiments. Furthermore, toxicity of the compounds in combination with micelles was tested using the same method. MDCKIIwt and hNPC1L1/MDCKII were plated in 96-well microtiter plates (150 μL medium/well) at 2 × 10^5 cells/mL 24 h before the experiment. Micelles were prepared according to the modified method described by Field et al.[23] In brief, micellar components were mixed with DMEM supplemented with 10% FCS to obtain final concentrations of 0.25 mM oleic acid, 50 μM cholesterol, 10 μM compactin, 50 μM mevalonate, 5 mM Na-taurocholate (Sigma–Aldrich, Munich, Germany) and sonicated. Tested compounds (25, 50, 100, 150, 200 μM) were added to the prepared medium, vortexed and applied to the cells for 1 h. Cytotoxicity was determined using the MTT assay.

For series [1], the system named is hNPC1L1/MDCKII cells. Also on record: method as in PMID 25305716. The note with it: determined previously, cited from earlier work.
The test system of a further series is C57BL/6 mice. As to the kind of experiment: In vivo acute cholesterol absorption. The conditions noted are these: 20 mg/kg/day for 2 days, oral gavage, reduction in [3H]cholesterol radioactivity relative to vehicle, mean ± SEM. As to the method: Finally, we tested the in vivo inhibition of cholesterol absorption of ezetimibe 1 and 4-F-phenyl representatives (5b,d,f) from each group of ezetimibe analogs. For in vivo testing, we used the compounds with lower IC50 values and higher inhibition of cholesterol uptake as determined in vitro. For that purpose, mice were treated with 20 mg/kg/day of each compound for two days, gavaged with [^3H]cholesterol and radioactivity was measured in the liver and three equal parts of the small intestine (duodenum, jejunum, ileum). The results are expressed as percent reduction in radioactivity relative to vehicle (Table 2). […] In the three parts of the small intestine (duodenum, jejunum, ileum), ezetimibe 1 lowered [^3H]cholesterol by 60%, 52%, and 44%, respectively.
26 weeks old male C57BL/6 mice (3–4 per group) were maintained in a temperature-controlled environment under a 12 h light/12 h dark cycle with free access to chow diet (Altromin Spezialfutter GmbH, Lage, Germany) and water. For two days, mice were treated with ezetimibe, tested compounds (20 mg/kg/day) or vehicle. For the treatment, compounds were dissolved in corn oil and administered to mice (100 μL) after 4 h fasting by oral gavage. On day 2, 90 min after compound administration, mice were gavaged with corn oil (200 μL) containing [^3H]cholesterol (2 μCi) ([1,2-3H(N)] cholesterol, 1 mCi/mL, ARC Inc., St. Louis, USA). Liver and small intestines were collected 4 h post-gavage and cholesterol uptake and absorption were determined as previously described.[24] Animal experiments were performed according to the standards set by the Austrian Federal Ministry of Science, Research, and Economy, Vienna, Austria.

A short description of series [2]: MTT cell proliferation assay (cytotoxicity), HepG2. The class given is cell-based. The conditions noted are these: human, HepG2 cells, 72 h incubation, read-out: LC50, HepG2. As to the method:
The results are expressed as LC50 values. […] Cytotoxicity was determined using the MTT assay.

Series [3] in a line: MTT cell proliferation assay (cytotoxicity), MDCKIIwt. The class given is cell-based. The note with it: dog, MDCKII wild-type cells, 72 h incubation, read-out: LC50, MDCKII. The procedure: as §1, §2, §3
Series [4] deals with hNPC1L1/MDCKII cells. Briefly: In vitro [3H]cholesterol uptake. The format is cell-based, Canine. The conditions noted are these: for IC50: Canis lupus familiaris, MDCK-II, read-out: IC50, inhibition of cholesterol uptake; for maximum inhibition of cholesterol uptake: compared to untreated cells. The procedure: Ezetimibe analogs 5a–f were tested for inhibition of cholesterol uptake in hNPC1L1/MDCKII cells (Fig. 3).
The results are expressed as percentage of inhibition compared to untreated cells and represent mean ± SEM of three independent experiments. *p <0.05, **p <0.01, ***p <0.001 determined by one-way ANOVA followed by Dunnett’s test.
In vitro cholesterol uptake was determined as described by Dražić et al.[19] In brief, hNPC1L1/MDCKII cells were plated in 24-well plates at 5 × 10^5 cells/mL medium (500 μL medium/well) in DMEM supplemented with 5% LPDS 24 h before the treatment. Cells were washed once with PBS and medium containing micelles, [^3H]cholesterol (0.18 μCi/mL medium) ([1,2-3H(N)] cholesterol, 1 mCi/mL, ARC Inc., St. Louis, USA) and tested compounds in concentrations of 0–200 μM was added. After 1 h, the medium was removed, cells were washed three times with ice-cold 0.2% free fatty acid-free BSA and lysed. Radioactivity in the lysate (100 μL) was measured by liquid scintillation counting. Protein content in lysates was determined with the DC Protein Assay (Bio-Rad, Hercules, USA). The results were expressed as percentage of inhibition compared to untreated cells in CPM/mg protein. Activity of each compound was tested in duplicate in three independent experiments.

[5] abbreviates: MDCKII cells stably expressing human NPC1L1 (hNPC1L1/MDCKII).
[6] abbreviates: listed as ezetimibe 1, 20 mg/kg/day.
Setting [7] is: hNPC1L1/MDCKII cells, 1 h, micelles with [3H]cholesterol.

On to `O=C1[C@H](CC[C@H](O)c2ccc(F)cc2)[C@@H](c2ccc(O)cc2)N1c1ccc(F)cc1` [Compound 1, Ezetimibe, reference compound], for which, in “in vitro” (setting [5]), the CC50 at 72 h came to 62.3 µM. For the same compound, the IC50 in the series on hNPC1L1/MDCKII cells [1] (read-out: IC50, inhibition of cholesterol uptake) was 24 µM. In addition, in the series with hNPC1L1/MDCKII cells [1], the “maximum inhibition of cholesterol uptake” value is 40%. In the series with C57BL/6 mice (20 mg/kg/day), the “In vivo inhibition of cholesterol absorption, Duodenum” value (from here on “In vivo inhibition … Duodenum”) is listed as 60 ± 6 %; the “In vivo inhibition of cholesterol absorption, Ileum” value (“In vivo inhibition … Ileum” below) turned out to be 44 ± 11%; the “In vivo inhibition of cholesterol absorption, Jejunum” value (“In vivo inhibition … Jejunum” below) was 52 ± 3 %; the “In vivo inhibition of cholesterol absorption, Liver” value (from here on “In vivo inhibition … Liver”) is 53 ± 2 %. In the series on C57BL/6 mice (setting [6]), the “In vivo inhibition … Duodenum” value was 60%; the “In vivo inhibition … Ileum” value came out at 44%; the “In vivo inhibition … Jejunum” value is on record as 52%; the “In vivo inhibition … Liver” value turned out to be 53%. For the same compound, in series [2], the CC50 at 72 h came out at 69.7 µM. In addition, in series [3], the CC50 at 72 h was over 100 µM.

Take `O=C(/C=C/c1ccccc1)N[C@H]1C(=O)N(c2ccc(F)cc2)[C@@H]1c1ccc(O)cc1` [Compound 5a, (E)-N-((2R,3R)-1-(4-Fluorophenyl)-2-(4-hydroxyphenyl)-4-oxoazetidin-3-yl)cinnamamide]: the CC50 at 72 h in “in vitro” (setting [5]) is 65.1 µM; in series [2], 63.3 µM; in series [3], 66.5 µM. The IC50 in the series on hNPC1L1/MDCKII cells [4] (setting [7]) was determined as 20 µM. Further, the “concentration at which maximum inhibition of cholesterol uptake was reached” value with hNPC1L1/MDCKII cells [4] (hNPC1L1/MDCKII cells) worked out at 60 µM. In addition, in the series with hNPC1L1/MDCKII cells [4] (hNPC1L1/MDCKII cells), the “maximum inhibition of cholesterol uptake” value was ~ 45%.

`O=C(/C=C/c1ccc(F)cc1)N[C@H]1C(=O)N(c2ccc(F)cc2)[C@@H]1c1ccc(O)cc1` [Compound 5b, (E)-3-(4-Fluorophenyl)-N-((2R,3R)-1-(4-fluorophenyl)-2-(4-hydroxyphenyl)-4-oxoazetidin-3-yl)acrylamide]: the CC50 at 72 h in “in vitro” came to 63.3 µM. For the same compound, the IC50 in the series on hNPC1L1/MDCKII cells [4] was 18 µM. Further, in the series on hNPC1L1/MDCKII cells [4] (hNPC1L1/MDCKII cells), the “concentration at which maximum inhibition of cholesterol uptake was reached” value is 60 µM and the “maximum inhibition of cholesterol uptake” value is given as ~ 45%. Also, in the series with C57BL/6 mice (20 mg/kg/day), the “In vivo inhibition … Duodenum” value was 27% and 27 ± 10%; the “In vivo inhibition … Ileum” value is 37% and 37 ± 15%; the “In vivo inhibition … Jejunum” value was 35% and 35 ± 8%; the “In vivo inhibition … Liver” value was 49% and 49 ± 5 %. In addition, the CC50 at 72 h in series [2] amounted to 57.5 µM. For the same compound, the CC50 at 72 h in series [3] came out at 64 µM.

As to `O=C(Cc1ccccc1)N[C@H]1C(=O)N(c2ccc(F)cc2)[C@@H]1c1ccc(O)cc1` [Compound 5c, N-((2R,3R)-1-(4-Fluorophenyl)-2-(4-hydroxyphenyl)-4-oxoazetidin-3-yl)-2-phenylacetamide], the CC50 at 72 h (in “in vitro” (setting [5]); in series [2]; in series [3]) was over 100 µM each time. Further, the IC50 in the series with hNPC1L1/MDCKII cells [4] (setting [7]) was found to be 88 µM. The “maximum inhibition of cholesterol uptake” value in the series on hNPC1L1/MDCKII cells [4] (hNPC1L1/MDCKII cells) is given as ~ 40%.

On to `O=C(Cc1ccc(F)cc1)N[C@H]1C(=O)N(c2ccc(F)cc2)[C@@H]1c1ccc(O)cc1` [Compound 5d, 2-(4-Fluorophenyl)-N-((2R,3R)-1-(4-fluorophenyl)-2-(4-hydroxyphenyl)-4-oxoazetidin-3-yl)acetamide], for which, in “in vitro” (setting [5]), the CC50 at 72 h is over 100 µM. Further, in the series with hNPC1L1/MDCKII cells [4] (setting [7]), the IC50 was 46 µM. Besides, in the series on hNPC1L1/MDCKII cells [4] (hNPC1L1/MDCKII cells), the “maximum inhibition of cholesterol uptake” value is listed as ~ 40%. Besides, in the series with C57BL/6 mice (20 mg/kg/day), the “In vivo inhibition … Duodenum” value was 15% and 15 ± 12%; the “In vivo inhibition … Ileum” value is 24% and 24 ± 13%; the “In vivo inhibition … Jejunum” value was 14% and 14 ± 20%; the “In vivo inhibition … Liver” value was 39% and 39 ± 11 %. In addition, the CC50 at 72 h in series [2] is over 100 µM. The CC50 at 72 h in series [3] is over 100 µM.

As for `O=C(N[C@H]1C(=O)N(c2ccc(F)cc2)[C@@H]1c1ccc(O)cc1)c1ccccc1` [Compound 5e, N-((2R,3R)-1-(4-Fluorophenyl)-2-(4-hydroxyphenyl)-4-oxoazetidin-3-yl)benzamide], the CC50 at 72 h was 68.3 µM in “in vitro” (setting [5]), 67.6 µM in series [2] and 91.2 µM in series [3]. Besides, the IC50 in the series with hNPC1L1/MDCKII cells [4] (setting [7]) was determined as 70 µM.

`O=C(N[C@H]1C(=O)N(c2ccc(F)cc2)[C@@H]1c1ccc(O)cc1)c1ccc(F)cc1` [Compound 5f, 4-Fluoro-N-((2R,3R)-1-(4-fluorophenyl)-2-(4-hydroxyphenyl)-4-oxoazetidin-3-yl)benzamide]: the CC50 at 72 h in the series “in vitro” (setting [5]) amounted to 64.7 µM. Moreover, in the series on hNPC1L1/MDCKII cells [4] (setting [7]), the IC50 came out at 54 µM. Further, in the series on C57BL/6 mice (20 mg/kg/day), the “In vivo inhibition … Duodenum” value was 42% and 42 ± 2%; the “In vivo inhibition … Ileum” value is 28% and 28 ± 7%; the “In vivo inhibition … Jejunum” value is 32% and 32 ± 6%; the “In vivo inhibition … Liver” value is 37% and 37 ± 8 %. Also, the CC50 at 72 h in series [2] is 71.9 µM. In series [3], the CC50 at 72 h was determined as 78.6 µM.

(Values after PMC4414353, “Synthesis and evaluation of novel amide amino-β-lactam derivatives as cholesterol absorption inhibitors” (Bioorganic & medicinal chemistry, 2015).)
